From patent US8603498B2, “Lipo-phosphated or lipo-sulphated compound, compositions comprising it and topical uses thereof” (Sederma, S.A.S., priority 2010, dated 2013)

Legend:
[1] = target: T1, tyrosinase (Homo sapiens, UniProt P14679); experiment: Tyrosinase activity of human melanocytes; format: cell-based; details: 5 days
T1 construct: endogenous in cells; host or cells: human melanocytes (homogenates)
T1 sequence (P14679 19-529): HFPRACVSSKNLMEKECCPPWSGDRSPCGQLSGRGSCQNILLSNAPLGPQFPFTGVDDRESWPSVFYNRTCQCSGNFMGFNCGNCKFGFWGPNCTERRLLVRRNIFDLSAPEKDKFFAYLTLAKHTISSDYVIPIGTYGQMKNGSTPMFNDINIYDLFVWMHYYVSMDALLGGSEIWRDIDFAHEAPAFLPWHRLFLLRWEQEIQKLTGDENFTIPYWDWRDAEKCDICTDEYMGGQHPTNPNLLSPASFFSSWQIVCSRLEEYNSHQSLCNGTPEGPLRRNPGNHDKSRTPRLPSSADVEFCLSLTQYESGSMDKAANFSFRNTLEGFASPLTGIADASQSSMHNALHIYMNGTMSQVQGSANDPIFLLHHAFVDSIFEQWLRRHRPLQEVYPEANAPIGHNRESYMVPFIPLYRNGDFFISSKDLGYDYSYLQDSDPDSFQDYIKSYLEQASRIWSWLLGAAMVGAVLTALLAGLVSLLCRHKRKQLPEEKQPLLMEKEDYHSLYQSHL
Method: Human melanocyte are sowed and contacted with the […] for 5 days. At the end of the incubation period, the residual tyrosinase activity was measured in cell homogenates.

[2] = system: hyaluronic acid; experiment: Synthesis of hyaluronic acid by human keratinocytes (ELISA); format: cell-based; details: for hyaluronic acid ng/10^e6 cells: 3 days, supernatant
Method: Protocol: Human keratinocytes are humains were cultivated in MW24 plates for 24 h. Cells were contacted or not with the Lipo-Phosphomalate for 3 days. Culture surpernatants were taken and an assay of the quantity of hyaluronic acid was achieved. Retinoic acid was used as the positive control.

[3] = system: loricrin; experiment: Production of loricrin in cultured human keratinocytes by immunolabelling; format: cell-based; details: for Loricrin Change (%): vs control
Method: (§1) Protocol: Human keratinocytes were cultivated up to confluence. The cells were then placed in contact/not contact with the solubilized Lipo-Phosphomalate for 21 days. At the end of this contact period, labelling common to both filaggrin and profilaggrin was carried out on cell layers using specific antibodies. Labelling intensity was analysed on photos (n=15 photos) and compared to that obtained for the negative control and for vitamin D3 at 10^−7M used as a positive differentiation control.
Loricrine is one of the key elements in the formation of the corneal envelope. It is attached to involucrin (see 1.1) by transglutaminase, which forms rigid, insoluble structures. The method described in 1.2. was used.

[4] = system: matriptase; experiment: Production of matriptase in cultured human keratinocytes by immunolabelling; format: cell-based; details: for Matriptase Change (%): vs control
[5] = system: filaggrin/profilaggrin; experiment: Filaggrin synthesis on human keratinocytes (immunofluorescent method); format: cell-based; details: for Filaggrin/profilaggrin (UFA/10^6 cell.): 21 days contact; for Filaggrin/profilaggrin Change (%): vs control
Method: as §1

[6] = system: non hydroxylated ceramides; experiment: Non hydroxylated ceramides in keratinocytes by HPTLC; format: cell-based, human; details: 5 ppm
Method: (§2) The same protocol was followed as before but a larger quantity of keratinocyes was used on this occasion because of the limits of detection of the apparatus. After 7 days, the layers were rinsed, lipids extracted using solvents before being deposited on a thin-layer chromatography plate using an automated device. After migration and detection, the bands were analysed and quantified based on a range of standard lipids deposited on the same plate.
(§3) At the same time as the HPTLC cholesterol assay, an assay of hydroxylated and non-hydroxylated ceramides was carried out on the extracts.

[7] = system: transglutaminase-1 gene; experiment: DNA-Array study, transglutaminase-1 gene; format: cell-based; details: in the presence of solubilised Lipo-Phosphomalate
Text: In addition, a DNA-Array study has shown that the transglutaminase-1 and involucrin genes are over-expressed in the network with other genes essential for the formation of the corinfied layer in the presence of solubilised Lipo-Phosphomalate.

[8] = system: transglutaminase-1 m-RNA; experiment: Transglutaminase-1 m-RNA in keratinocytes by qRT-PCR; format: cell-based, human; details: 5 ppm, 14 days; for m-RNA % change: after normalisation by the housekeeping gene
Text: ByqRT-PCR: Human keratinocytes were placed in contact/not placed in contact with solubilised for 14 days. At the end of the contact period, the cultures were stopped and m-RNA allowing production of transglutaminase-1 protein was quantified using the RT-PCR method.
After extraction and purification of the m-RNA, copies are made in DNA using a Reverse Transcriptase (RT). The number of copies of a given m-RNA (here that of TGase) is thereafter amplified using two oligonucleotides (called primers) specific to the gene of TGase and to an enzyme (PCR=polymerase chain reaction) during a series of amplification cycles, each of which doubling the number of copies present. The result of this amplication is measured by fluorescence. Ct is the number of cycles required to achieve a given fluorescence level (arbitrarily set). It is clear, that the more m-RNA of a given gene present in the starting culture there are, the fewer cycles (Ct) are needed to reach the set level of fluorescence.

[9] = system: melanocytes; experiment: Lipid production in melanocytes; format: cell-based
Text: This lipid production by the Lipo-Phosphomalate was not observed in fibroblasts or melanocytes. It is therefore a specific effect related to the metabolism of keratinocyte during its differentiation.

[10] = system: hydroxylated ceramides; experiment: Hydroxylated ceramides in keratinocytes by HPTLC; format: cell-based, human; details: 5 ppm
Method: as §2, §3

[11] = system: G3PDH; experiment: G3PDH activity in differentiating 3T3-L1 cells; format: cell-based
Method: 3T3-L1 cells were cultivated until sub-confluence, then induced to differentiate with the appropriate mixture with or without the Lipo-Phosphomalate at different concentrations. After 3 days of incubation, the differenciation mixture is replaced by a new maintaining culture medium, in the presence or not of the Lipo-Phosphomalate. After 3 days of incubation, the cell layers are collected and the activity of G3PDH is assayed.

[12] = 5 ppm, listed as Solubilised Lipo-Phosphomalate
[13] = 5 ppm, listed as solubilised Lipo-Phosphomalate

**Q.** How did the “tyrosinase activity Variation (%)” value ([1]; 10 ppm) turn out when `CCCCCCCCCCCCCCOC(=O)CC(OP(=O)(O)O)C(=O)O` (stereo not shown) [Lipo-Phosphomalate, 2-phosphate-succinic-acid-4-tetradecyle ester] was run?
**A.** Its value is −21%; p < 0.01.

**Q.** What about the “tyrosinase activity Variation (%)” value ([1]; 12 ppm) of the same molecule?
**A.** Its value is −28%; p < 0.01.

**Q.** And the “tyrosinase activity Variation (%)” value ([1]; 15 ppm)?
**A.** The value was −31%; p < 0.01.

**Q.** And the “hyaluronic acid % Change/control” value ([2]; 1.67 ppm)?
**A.** Its value is “+16%; p < 0.01”.

**Q.** What about the “hyaluronic acid ng/10^e6 cells” value ([2]; 1.67 ppm) of the same molecule?
**A.** The value was 1015 +/− 46 ng/10^e6 cells.

**Q.** What about the “hyaluronic acid % Change/control” value ([2]; 5 ppm) of the same molecule?
**A.** The value was “+57%; p < 0.01”.

**Q.** And the “hyaluronic acid ng/10^e6 cells” value ([2]; 5 ppm)?
**A.** The value was 1374 +/− 50 ng/10^e6 cells.

**Q.** What about the “hyaluronic acid % Change/control” value ([2]; 8.33 ppm) of the same molecule?
**A.** Its value is “+69%; p < 0.01”.

**Q.** And the “hyaluronic acid ng/10^e6 cells” value ([2]; 8.33 ppm)?
**A.** The value was 1480 +/− 51 ng/10^e6 cells.

**Q.** And the “Loricrin (UFA/10^6 cell.)” value ([3]; 1.5 ppm)?
**A.** Its value is 1.69 ± 0.67 UFA/10^6 cell.

**Q.** What about the “Loricrin Change (%)” value ([3]; 1.5 ppm) of the same molecule?
**A.** Its value is “+131%; p < 0.01”.

**Q.** What about the “Loricrin (UFA/10^6 cell.)” value ([3]; 5 ppm) of the same molecule?
**A.** Its value is 3.84 ± 1.19 UFA/10^6 cell.

**Q.** And the “Loricrin Change (%)” value ([3]; 5 ppm)?
**A.** Its value is “+426%; p < 0.01”.

**Q.** What about the “Matriptase (UFA/10^6 cell.)” value ([4]; 1.5 ppm) of the same molecule?
**A.** Its value is 2.27 ± 0.47 UFA/10^6 cell.

**Q.** And the “Matriptase Change (%)” value ([4]; 1.5 ppm)?
**A.** The value was “+125%; p < 0.01”.

**Q.** And the “Matriptase (UFA/10^6 cell.)” value ([4]; 5 ppm)?
**A.** The value was 4.08 ± 1.56 UFA/10^6 cell.

**Q.** What about the “Matriptase Change (%)” value [4, 12] of the same molecule?
**A.** The value was “+304%; p < 0.01”.

**Q.** What about the “Matriptase Change (%)” value [4, 13] of the same molecule?
**A.** The value was “+304%”.

**Q.** And the “Filaggrin/profilaggrin (UFA/10^6 cell.)” value ([5]; 1.5 ppm)?
**A.** The value was 3.04 ± 1.21 UFA/10^6 cell.

**Q.** What about the “Filaggrin/profilaggrin Change (%)” value ([5]; 1.5 ppm) of the same molecule?
**A.** The value was “+119%; p < 0.01”.

**Q.** And the “Filaggrin/profilaggrin (UFA/10^6 cell.)” value ([5]; 5 ppm)?
**A.** The value was 5.00 ± 1.58 UFA/10^6 cell.

**Q.** What about the “Filaggrin/profilaggrin Change (%)” value [5, 12] of the same molecule?
**A.** Its value is “+259%; p < 0.01”.

**Q.** And the “Filaggrin/profilaggrin Change (%)” value [5, 13]?
**A.** Its value is “+259%”.

**Q.** And the “Non hydroxylated Ceramides (pg/10^6 cell.)” value ([6]; 7 days)?
**A.** The value was 8.41 ± 1.30 pg/10^6 cell.

**Q.** And the “Non hydroxylated Ceramides % Change” value ([6]; vs control)?
**A.** Its value is “+256%; p < 0.01”.

**Q.** What about the “transglutaminase-1 gene expression (DNA-Array)” value [7] of the same molecule?
**A.** The value was “over-expressed”.

**Q.** What about the m-RNA % change ([8]; listed as Solubilised Lipo-Phosphomalate) of the same molecule?
**A.** The m-RNA % change was “+101%; p < 0.01”.

**Q.** What about the m-RNA % change ([8]; listed as solubilised Lipo-Phosphomalate) of the same molecule?
**A.** Its m-RNA % change is “~+100%”.

**Q.** What about the “m-RNA Number of cycles: Ct” value ([8]; control 24.60 ± 0.42) of the same molecule?
**A.** The value was 23.25 ± 0.46.

**Q.** And the “lipid production (cholesterol, ceramides)” value [9]?
**A.** Its value is “not observed”.

**Q.** And the “Hydroxylated Ceramides (pg/10^5 cell.)” value ([10]; 7 days)?
**A.** The value was 10.50 ± 1.12 pg/10^5 cell.

**Q.** And the “Hydroxylated Ceramides Change (number of times)” value ([10]; vs control)?
**A.** Its value is “×7.5”.

**Q.** And the “G3PDH activity % Change/control” value ([11]; 10 ppm)?
**A.** The value was “+158%; p < 0.01”.

**Q.** And the “G3PDH activity % Change/control” value ([11]; 15 ppm)?
**A.** Its value is “+225%; p < 0.01”.
